Experimental data published in publication PMC5034536, “Molecular insights into substrate recognition and catalytic mechanism of the chaperone and FKBP peptidyl-prolyl isomerase SlyD” (BMC Biology, 2016).
Where “and” joins values, the source holds several entries; their conditions need not be identical. Equal entries are not always repeated.

Tests used:
TtSlyDFL = test: Tetrapeptide cis/trans isomerization activity by NMR lineshape analysis; format: biochemical, Thermus thermophilus
Description: (§1) In order to accurately measure the catalytic activity of TtSlyDFL on peptidyl-prolyl cis/trans isomerization, we carried out Michaelis-Menten studies under equilibrium conditions using NMR lineshape analysis, which is capable of monitoring the rate of exchange between cis and trans conformations of the peptide substrate. Initially, we benchmarked the method against literature data using the standard suc-ALPF-pNA tetrapeptide (Fig. 7a). […] For the TtSlyDΔIF construct, we obtained kcat/KM = 0.85 ± 0.01 μM^−1s^−1, showing a minor influence of the IF domain.
(§2) Lineshape analysis was performed using MATLAB.

TtSlyDΔIF = test: as above; format: biochemical, Thermus thermophilus
Description: as §1, §2

E. coli SlyD = settings: estimated, E. coli SlyD at high salt concentration; cited from earlier work
human FKBP12 = human FKBP12 with suc-ALPF-pNA as a substrate; ref U Weininger, unpublished data; cited from earlier work
TtSlyDFL Y13F = TtSlyDFL Y13F (Thermus thermophilus, UniProt Q5SLE7, Y13F); test: Tetrapeptide activity by NMR lineshape analysis
Chain of TtSlyDFL Y13F (Q5SLE7 entry or part of it Y13F): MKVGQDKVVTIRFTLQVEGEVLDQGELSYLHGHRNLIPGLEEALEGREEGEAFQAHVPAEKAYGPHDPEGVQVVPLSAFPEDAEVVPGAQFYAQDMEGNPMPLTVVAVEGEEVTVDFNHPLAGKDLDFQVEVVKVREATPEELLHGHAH
Description: (§3) Although the kcat/KM and KD values refer to different substrates, this analysis should provide valuable insights into the relative impact of a given mutation on binding and turnover.
(§4) NMR samples contained TtSlyD in 20 mM HEPES, 100 mM NaCl, pH 7.5, and 10 % (v/v) D2O. All experiments were performed at a static magnetic field strength of 14.1 T and a temperature of 25 °C. […] Lineshape analysis was performed using MATLAB.
(§5) For tetrapeptide activity studies, one-dimensional ^1H spectra of 500 μM suc-ALPF-pNA tetrapeptide containing 2 μM, 4 μM, or 6 μM of TtSlyD were recorded for the different mutants [59].

TtSlyDFL D23A = TtSlyDFL D23A (Thermus thermophilus, UniProt Q5SLE7, D23A); test: Tetrapeptide activity by NMR lineshape analysis
Chain of TtSlyDFL D23A (Q5SLE7 entry or part of it D23A): as the sequence (Q5SLE7 entry or part of it Y13F) above, with F13Y, D23A counted along it
Description: as §3, §4, §5

TtSlyDFL N35A = TtSlyDFL N35A (Thermus thermophilus, UniProt Q5SLE7, N35A); test: Tetrapeptide activity by NMR lineshape analysis
Chain of TtSlyDFL N35A (Q5SLE7 entry or part of it N35A): as the sequence (Q5SLE7 entry or part of it Y13F) above, with F13Y, N35A counted along it
Description: as §3, §4, §5

TtSlyDFL I37G = TtSlyDFL I37G (Thermus thermophilus, UniProt Q5SLE7, I37G); test: Tetrapeptide activity by NMR lineshape analysis
Chain of TtSlyDFL I37G (Q5SLE7 entry or part of it I37G): as the sequence (Q5SLE7 entry or part of it Y13F) above, with F13Y, I37G counted along it
Description: as §3, §4, §5

TtSlyDFL Y63F = TtSlyDFL Y63F (Thermus thermophilus, UniProt Q5SLE7, Y63F); test: Tetrapeptide activity by NMR lineshape analysis
Chain of TtSlyDFL Y63F (Q5SLE7 entry or part of it Y63F): as the sequence (Q5SLE7 entry or part of it Y13F) above, with F13Y, Y63F counted along it
Description: as §3, §4, §5

TtSlyDFL Y63A = TtSlyDFL Y63A (Thermus thermophilus, UniProt Q5SLE7, Y63A); test: Tetrapeptide activity by NMR lineshape analysis
Chain of TtSlyDFL Y63A (Q5SLE7 entry or part of it Y63A): as the sequence (Q5SLE7 entry or part of it Y13F) above, with F13Y, Y63A counted along it
Description: as §4, §5

TtSlyDFL A78G = TtSlyDFL A78G (Thermus thermophilus, UniProt Q5SLE7, A78G); test: Tetrapeptide activity by NMR lineshape analysis
Chain of TtSlyDFL A78G (Q5SLE7 entry or part of it A78G): as the sequence (Q5SLE7 entry or part of it Y13F) above, with F13Y, A78G counted along it
Description: as §4, §5

TtSlyDFL Y92A = TtSlyDFL Y92A (Thermus thermophilus, UniProt Q5SLE7, Y92A); test: Tetrapeptide activity by NMR lineshape analysis
Chain of TtSlyDFL Y92A (Q5SLE7 entry or part of it Y92A): as the sequence (Q5SLE7 entry or part of it Y13F) above, with F13Y, Y92A counted along it
Description: as §4, §5

TtSlyDFL Q94A = TtSlyDFL Q94A (Thermus thermophilus, UniProt Q5SLE7, Q94A); test: Tetrapeptide activity by NMR lineshape analysis
Chain of TtSlyDFL Q94A (Q5SLE7 entry or part of it Q94A): as the sequence (Q5SLE7 entry or part of it Y13F) above, with F13Y, Q94A counted along it
Description: as §4, §5

TtSlyDFL M96A = TtSlyDFL M96A (Thermus thermophilus, UniProt Q5SLE7, M96A); test: Tetrapeptide activity by NMR lineshape analysis
Chain of TtSlyDFL M96A (Q5SLE7 entry or part of it M96A): as the sequence (Q5SLE7 entry or part of it Y13F) above, with F13Y, M96A counted along it
Description: as §4, §5

TtSlyDFL H119A = TtSlyDFL H119A (Thermus thermophilus, UniProt Q5SLE7, H119A); test: Tetrapeptide activity by NMR lineshape analysis
Chain of TtSlyDFL H119A (Q5SLE7 entry or part of it H119A): as the sequence (Q5SLE7 entry or part of it Y13F) above, with F13Y, H119A counted along it
Description: (§6) NMR samples contained TtSlyD in 20 mM HEPES, 100 mM NaCl, pH 7.5, and 10 % (v/v) D2O. All experiments were performed at a static magnetic field strength of 14.1 T and a temperature of 25 °C. The spectra were processed with NMRpipe [57] and analyzed with NMRview [58], except one-dimensional spectra, which were processed and analyzed using VNMRJ (Agilent, Inc.). Lineshape analysis was performed using MATLAB.
as §5

TtSlyDFL F128A = TtSlyDFL F128A (Thermus thermophilus, UniProt Q5SLE7, F128A); test: Tetrapeptide activity by NMR lineshape analysis
Chain of TtSlyDFL F128A (Q5SLE7 entry or part of it F128A): as the sequence (Q5SLE7 entry or part of it Y13F) above, with F13Y, F128A counted along it
Description: as §6, §5

[1] = substrate 500 μM suc-ALPF-pNA, NMR lineshape analysis, 25 °C
[2] = suc-ALPF-pNA, relative to wild-type TtSlyDFL

## succinyl-Ala-Leu-Pro-Phe-4-nitroanilide [suc-ALPF-pNA]
TtSlyDFL; TtSlyD, suc-ALPF-pNA tetrapeptide as substrate
  kcat: > 10,000 s^−1
TtSlyDFL; TtSlyDFL, 500 μM suc-ALPF-pNA, enzyme concentration varied, linear regression, 25 °C
  kcat/KM: 1.47 ± 0.05 10^6 M^−1s^−1 and 1.5 10^6 M^−1s^−1
TtSlyDFL; wild-type TtSlyDFL, substrate 500 μM suc-ALPF-pNA, NMR lineshape analysis, 25 °C
  Activity (kcat/KM): 1.47 ± 0.05 10^6 M^-1 s^-1
TtSlyDFL; wild-type TtSlyDFL, suc-ALPF-pNA as substrate, NMR lineshape analysis, equilibrium conditions, 25 °C
  kcat/KM: 1.47 ± 0.05 µM⁻¹ s⁻¹
TtSlyDFL; wild-type TtSlyDFL, suc-ALPF-pNA, reference
  Relative activity: 100%
TtSlyDΔIF; 500 μM suc-ALPF-pNA, enzyme concentration varied, linear regression, 25 °C
  kcat/KM: 0.85 ± 0.01 10^6 M^−1s^−1
TtSlyDΔIF; [1]
  Activity (kcat/KM): 0.85 ± 0.01 10^6 M^-1 s^-1
TtSlyDΔIF; suc-ALPF-pNA as substrate, NMR lineshape analysis, 25 °C
  kcat/KM: 0.85 ± 0.01 µM⁻¹ s⁻¹
TtSlyDΔIF; [2]
  Relative activity: 58%
E. coli SlyD
  Kd: ~44 µM
Human FKBP12
  kcat: above 10,000 s^−1
TtSlyDFL Y13F; [1]
  Activity (kcat/KM): 1.35 ± 0.17 10^6 M/s
TtSlyDFL Y13F; [2]
  Relative activity: 92%
TtSlyDFL D23A; [1]
  Activity (kcat/KM): 1.15 ± 0.21 10^6 M/s
TtSlyDFL D23A; [2]
  Relative activity: 78%
TtSlyDFL N35A; [1]
  Activity (kcat/KM): 1.04 ± 0.28 10^6 M/s
TtSlyDFL N35A; [2]
  Relative activity: 71%
TtSlyDFL I37G; [1]
  Activity (kcat/KM): 0.73 ± 0.12 10^6 M/s
TtSlyDFL I37G; [2]
  Relative activity: 50%
TtSlyDFL Y63F; [1]
  Activity (kcat/KM): 1.12 ± 0.11 10^6 M/s
TtSlyDFL Y63F; [2]
  Relative activity: 76%
TtSlyDFL Y63A; [1]
  Activity (kcat/KM): 0.31 ± 0.19 10^6 M/s
TtSlyDFL Y63A; [2]
  Relative activity: 21%
TtSlyDFL A78G; [1]
  Activity (kcat/KM): 0.76 ± 0.14 10^6 M/s
TtSlyDFL A78G; [2]
  Relative activity: 52%
TtSlyDFL Y92A; [1]
  Activity (kcat/KM): 0.53 ± 0.12 10^6 M/s
TtSlyDFL Y92A; [2]
  Relative activity: 36%
TtSlyDFL Q94A; [1]
  Activity (kcat/KM): 1.44 ± 0.49 10^6 M/s
TtSlyDFL Q94A; [2]
  Relative activity: 98%
TtSlyDFL M96A; [1]
  Activity (kcat/KM): 0.58 ± 0.15 10^6 M/s
TtSlyDFL M96A; [2]
  Relative activity: 39%
TtSlyDFL H119A; [1]
  Activity (kcat/KM): 1.23 ± 0.02 10^6 M/s
TtSlyDFL H119A; [2]
  Relative activity: 84%
TtSlyDFL F128A; [1]
  Activity (kcat/KM): 0.52 ± 0.16 10^6 M/s
TtSlyDFL F128A; [2]
  Relative activity: 35%
